# Test results reported in paper PMC3183052, “Immunoprotectivity of HLA-A2 CTL Peptides Derived from Respiratory Syncytial Virus Fusion Protein in HLA-A2 Transgenic Mouse” (PLoS ONE, 2011).
# How the values were obtained:
# [1] = test system: RSV-B1; assay: Body weight after live RSV challenge; type: in vivo, HLA-A*0201 transgenic C57BL/6 mice; details: peptide-immunized HLA-Tg B6 mice, 10^7 pfu live RSV-B1 i.n.; weight recorded daily for 9 days
# Description: To screen the immunodominance of epitopic peptide in the induction of RSV-F specific Th1/Th2 expression, HLA-A*0201 transgenic C57BL/6 mice were anesthetized with isoflurane and immunized with 1×10^7 pfu/50 µL of rAd-F0 or rAd-LacZ or 1×10^4 live RSV B1 via the intranasal (i.n.) route. Twenty days later, the mice were given booster immunization i.n. with the same dose. After 10 days of boost, mice were sacrificed and splenocytes were isolated for the cytokine ELISPOT assay. For peptide-based vaccination, transgenic mice were immunized subcutaneously (s.c.) with 50 µg of the individual synthetic peptides emulsified in 25 µL of incomplete Freund's adjuvant (IFA) (Sigma-Aldrich) and then boosted after 10 days s.c. with the same dose of the respective peptides mixed with IFA. Mice were sacrificed 7 days after the booster and splenocytes were isolated for in vitro peptide-restimulation. […] Mice body weight was monitored daily.
# Figure 3 Determination of lung viral load and gain of lost body weight. […] (A) The viral load in the lungs of individual mice was determined 4 days after challenge by real-time RT-PCR to quantitate RSV N gene expression as described in the Materials and Methods. […] (B) The body weight of each mouse was recorded daily for 9 days after virus challenge. Results are expressed as % (mean) for 5 mice in each experimental group. […]
# [2] = test system: splenocytic CD4+ T cells; assay: CFSE proliferation of CD4+ T cells after in vitro peptide restimulation; type: cell-based, mouse; details: mice immunized s.c. twice with 50 µg peptide in IFA; splenocytes restimulated with 10 µg/mL peptide for 8 days
# Description: To screen the immunodominance of epitopic peptide in the induction of RSV-F specific Th1/Th2 expression, HLA-A*0201 transgenic C57BL/6 mice were anesthetized with isoflurane and immunized with 1×10^7 pfu/50 µL of rAd-F0 or rAd-LacZ or 1×10^4 live RSV B1 via the intranasal (i.n.) route. Twenty days later, the mice were given booster immunization i.n. with the same dose. After 10 days of boost, mice were sacrificed and splenocytes were isolated for the cytokine ELISPOT assay. […] Mice body weight was monitored daily.
# The splenocytes were isolated, labeled with 5-(6)-carboxyfluorescein diacetate succinimidyl ester (CFSE) (Sigma-Aldrich) and stimulated in vitro with 10 µg/mL of the synthetic peptides for 4 or 8 days. Proliferation of splenocytic CD4^+ and CD8^+ T cells was analyzed by flow cytometry (BD FACSCalibur) using PE-Cy5-labeled specific antibody against CD4 (eBioscience) or CD8 (eBioscience), respectively. Cell division index (CDI), a ratio of CFSE-diluted CD4^+ or CD8^+ T cells stimulated by peptide to CFSE-diluted unstimulated CD4^+ or CD8^+ T cells, was calculated as shown below; [drawing 1] […]
# Figure 2 Epitope-specific CD4^+ and CD8^+ T-cell activation in peptide-immunized HLA-A*0201 transgenic mice. […] Proliferation of CD4^+ (A) or CD8^+ (B) lymphocytes in response to the different CD8 epitopes was analyzed by flow cytometry using anti-CD4 or CD8 antibodies conjugated with PE-Cy5. […]
# [3] = test system: pulmonary CD8+ T lymphocytes; assay: Number of CD8+ T cells in the lungs by flow cytometry after RSV challenge; type: in vivo, mouse; details: day 4 post RSV infection; flow cytometry of lung homogenate
# Description: Whole lungs were perfused with 5 mL 1× PBS before excision. The isolated lung tissues were incubated with 1 µg/mL collagenase for 30 min before homogenizing with the iron mesh. The homogenate was centrifuged at 1,000 rpm for 10 min at 4°C to sediment the pulmonary cells. The cells were washed with 1× PBS and then resuspended in 1× PBS for further analysis by real-time RT-PCR and flow cytometry. For pulmonary IFN-γ detection, 5×10^6/mL cells were cultured with 10 U/mL recombinant IL-2 for 2 days and the supernatants were collected for ELISA.
# Figure 5 Induction of pulmonary IFN-γ and CTL activity in peptide immunized transgenic mice challenged with RSV. At day 4 post RSV infection, lung homogenates were prepared and the following were measured. (A) IFN-γ expression by ELISA, and (B) the number of CD8^+ T cells in the lungs by flow cytometry using PE-cy5-labeled anti-CD8 antibody. (C). Enumeration of CTL activity in the lungs of mice immunized with CD8 peptide epitopes and challenged with RSV. […] The cell mixtures were labeled with 7-AAD and analyzed by flow cytometry. Results are expressed as mean percentage of 7-AAD/CFSE positive cells normalized with un-pulsed DCs. […]
sequence,measurement,setting,value
"YMLTNSELL [peptide 14, HLA-A*0201-restricted 9-mer synthetic peptide from F protein of RSV-B1 strain]",recovery of body weight loss (in words),[1],recovered only in the last two days
same,proliferation of CD4+ T cells (cell division index),[2],insignificant proliferation
same,pulmonary CD8+ T cell numbers vs vehicle immunization,[3],lower
